# Test results reported in patent US8450525B2, “Histone deacetylase inhibitors” (Orchid Chemicals & Pharmaceuticals Limited, priority 2007, dated 2013).
# pIC50: −log10 of the molar value.
# Assays:
# [1] = test system: NCI-H460 (lung) cells; assay: Anti-cancer screen, growth inhibition (MTT); type: cell-based; conditions: Homo sapiens, 48 hours of incubation
# Summary of the method: (§1)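 MTT added for 3 h at 37° C, formazan dissolved in DMSO and A570 read. A T0 plate was measured at compound addition.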
# [2] = test system: HCT 116 (colon) cells; assay: Anti-cancer screen, growth inhibition (MTT); type: cell-based; conditions: Homo sapiens, HCT-116 cells, 48 hours of incubation
# Summary of the method: as §1
# [3] = test system: U251 (glioma) cells; assay: Anti-cancer screen, growth inhibition (MTT); type: cell-based; conditions: Homo sapiens, U-251 cells, 48 hours of incubation
# Summary of the method: as §1
# [4] = test system: T1, HDAC (Mouse Liver Extract); assay: HDAC inhibition assay using Boc-Lys(Ac)-AMC substrate, mouse liver enzyme; type: biochemical;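 on pIC50: IC50 for inhibition of HDAC activity in mouse liver extract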
# T1 construct: Mouse liver enzyme (10 mg/ml) was diluted 1:6 with HDAC buffer
smiles,measurement,setting,value
"O=C(/C=C/c1ccc(/C=C(/C(=O)N2CCOCC2)c2ccc(F)cc2)cc1)NCCCCCC(=O)NO [Example 86, 6-((1E)-3-(4-(3-(Morpholino)-2-(4-fluorophenyl)-3-oxoprop-1-enyl)phenyl)acrylamido)-N-hydroxyhexanamide]",GI50,[1],50 µM
same,GI50,[2],19 µM
same,GI50,[3],10.5 µM
same,HDAC Inhibition % (1 μM),[4],95.6%
same,HDAC Inhibition % (10 μM),[4],98.6%
"O=C(/C=C/c1ccc(/C=C(/C(=O)N2CCOCC2)c2ccccc2F)cc1)NCCCCCC(=O)NO [Example 87, 6-((1E)-3-(4-(3-(Morpholino)-2-(2-fluorophenyl)-3-oxoprop-1-en-1-yl)phenyl)acrylamido)-N-hydroxyhexanamide]",GI50,[1],70 µM
same,GI50,[2],40 µM
same,GI50,[3],20 µM
same,HDAC Inhibition % (1 μM),[4],91.0%
same,HDAC Inhibition % (10 μM),[4],98.6%
"COc1ccc(/C(=C\c2ccc(/C=C/C(=O)NCCCCCC(=O)NO)cc2)C(=O)NC2CC2)cc1F [Example 88, 6-((1E)-3-(4-(3-(Cyclopropylamino)-2-(3-fluoro-4-methoxyphenyl)-3-oxoprop-1-en-1-yl)phenyl)acrylamido)-N-hydroxyhexanamide]",GI50,[1],> 100 µM
same,GI50,[2],11 µM
same,GI50,[3],18 µM
same,HDAC Inhibition % (1 μM),[4],97.9%
same,HDAC Inhibition % (10 μM),[4],98.8%
"O=C(/C=C/c1ccc(/C=C(/C(=O)NC2CC2)c2ccc(F)cc2)cc1)NCc1ccc(C(=O)NO)cc1 [Example 89, 4-(((1E)-3-(4-(3-(Cyclopropylamino)-2-(4-fluorophenyl)-3-oxoprop-1-en-1-yl)phenyl)acrylamido)methyl)-N-hydroxybenzamide]",GI50,[1],> 100 µM
same,GI50,[2],40 µM
same,GI50,[3],13 µM
same,HDAC Inhibition % (1 μM),[4],42.1%
same,HDAC Inhibition % (10 μM),[4],70.3%
"O=C(/C=C/c1ccc(/C=C(/C(=O)NC2CC2)c2ccccc2Cl)cc1)NCc1ccc(C(=O)NO)cc1 [Example 90, 4-(((1E)-3-(4-(3-(Cyclopropylamino)-2-(2-chlorophenyl)-3-oxoprop-1-en-1-yl)phenyl)acrylamido)methyl)-N-hydroxybenzamide]",GI50,[1],11 µM
same,GI50,[2],3.5 µM
same,GI50,[3],4.5 µM
same,pIC50,[4],7.89
same,HDAC Inhibition % (1 μM),[4],94.6%
same,HDAC Inhibition % (10 μM),[4],100.0%
"O=C(/C=C/c1ccc(/C=C(/C(=O)NC2CC2)c2cccc(Cl)c2)cc1)NCc1ccc(C(=O)NO)cc1 [Example 91, 4-(((1E)-3-(4-(3-(Cyclopropylamino)-2-(3-chlorophenyl)-3-oxoprop-1-en-1-yl)phenyl)acrylamido)methyl)-N-hydroxybenzamide]",GI50,[1],25 µM
same,GI50,[2],0.2 µM
same,GI50,[3],0.2 µM
same,pIC50,[4],> 9.00
same,HDAC Inhibition % (1 μM),[4],99.8%
same,HDAC Inhibition % (10 μM),[4],100.0%
"Cc1ccc(/C(=C\c2ccc(/C=C/C(=O)NCc3ccc(C(=O)NO)cc3)cc2)C(=O)NC2CC2)cc1 [Example 92, 4-(((1E)-3-(4-(3-(Cyclopropylamino)-2-(4-methylphenyl)-3-oxoprop-1-en-1-yl)phenyl)acrylamido)methyl)-N-hydroxybenzamide]",GI50,[1],0.1 µM
same,GI50,[2],3 µM
same,GI50,[3],24 µM
same,pIC50,[4],8.77
same,HDAC Inhibition % (1 μM),[4],85.8%
same,HDAC Inhibition % (10 μM),[4],99.7%
"O=C(/C=C/c1ccc(/C=C(/C(=O)NC2CC2)c2ccccc2)cc1)NCc1ccc(C(=O)NO)cc1 [Example 93, 4-(((1E)-3-(4-(3-(Cyclopropylamino)-2-phenyl-3-oxoprop-1-en-1-yl)phenyl)acrylamido)methyl)-N-hydroxybenzamide]",GI50,[1],32 µM
same,GI50,[2],35 µM
same,GI50,[3],52 µM
same,HDAC Inhibition % (1 μM),[4],74.0%
same,HDAC Inhibition % (10 μM),[4],91.6%
"COc1ccc(/C(=C\c2ccc(/C=C/C(=O)NCc3ccc(C(=O)NO)cc3)cc2)C(=O)NC2CC2)cc1 [Example 95, 4-(((1E)-3-(4-(3-(Cyclopropylamino)-2-(4-methoxyphenyl)-3-oxoprop-1-en-1-yl)phenyl)acrylamido)methyl)-N-hydroxybenzamide]",GI50,[1],90 µM
same,GI50,[2],4 µM
same,GI50,[3],15 µM
same,HDAC Inhibition % (1 μM),[4],97.6%
same,HDAC Inhibition % (10 μM),[4],100.0%
"O=C(/C=C/c1ccc(/C=C(/C(=O)N2CCOCC2)c2ccc(F)cc2)cc1)NCc1ccc(C(=O)NO)cc1 [Example 96, 4-(((1E)-3-(4-(3-(Morpholino)-2-(4-fluorophenyl)-3-oxoprop-1-en-1-yl)phenyl)acrylamido)methyl)-N-hydroxybenzamide]",GI50,[1],> 100 µM
same,GI50,[2],85 µM
same,GI50,[3],5 µM
same,HDAC Inhibition % (1 μM),[4],100.0%
same,HDAC Inhibition % (10 μM),[4],100.0%
"COc1cccc(/C(=C\c2ccc(/C=C/C(=O)NCc3ccc(C(=O)NO)cc3)cc2)C(=O)NC2CC2)c1 [Example 97, 4-(((1E)-3-(4-(3-(Cyclopropylamino)-2-(3-methoxyphenyl)-3-oxoprop-1-en-1-yl)phenyl)acrylamido)methyl)-N-hydroxybenzamide]",GI50,[1],7.5 µM
same,GI50,[2],6.5 µM
same,GI50,[3],2.3 µM
same,pIC50,[4],8.60
same,HDAC Inhibition % (1 μM),[4],100.0%
same,HDAC Inhibition % (10 μM),[4],100.0%
"O=C(/C=C/c1ccc(/C=C(/C(=O)N2CCOCC2)c2ccccc2F)cc1)NCc1ccc(C(=O)NO)cc1 [Example 98, 4-(((1E)-3-(4-(3-(Morpholino)-2-(2-fluorophenyl)-3-oxoprop-1-en-1-yl)phenyl)acrylamido)methyl)-N-hydroxybenzamide]",GI50,[1],> 100 µM
same,GI50,[2],9 µM
same,GI50,[3],18 µM
same,HDAC Inhibition % (1 μM),[4],91.5%
same,HDAC Inhibition % (10 μM),[4],98.8%
"Cc1ccc(/C(=C\c2ccc(C(=O)NO)cc2)C(=O)NC2CC2)cc1 [Example 99, 4-(3-(Cyclopropylamino)-2-(4-methylphenyl)-3-oxoprop-1-en-1-yl)-N-hydroxy benzamide]",GI50,[1],66 µM
same,GI50,[2],32 µM
same,GI50,[3],12 µM
same,HDAC Inhibition % (1 μM),[4],40.2%
same,HDAC Inhibition % (10 μM),[4],59.0%
"O=C(NC1CC1)/C(=C/c1ccc(C(=O)NO)cc1)c1ccccc1 [Example 102, 4-(3-(Cyclopropylamino)-2-phenyl-3-oxoprop-1-en-1-yl)-N-hydroxybenzamide]",GI50,[1],48 µM
same,GI50,[2],17 µM
same,GI50,[3],19 µM
same,HDAC Inhibition % (1 μM),[4],50.1%
same,HDAC Inhibition % (10 μM),[4],80.4%
"Cc1ccc(/C(=C\c2ccc(C(=O)Nc3ccccc3N)cc2)C(=O)NC2CC2)cc1 [Example 104, N-(2-Aminophenyl)-4-(3-(cyclopropylamino)-2-(4-methylphenyl)-3-oxoprop-1-en-1-yl)benzamide]",GI50,[1],5 µM
same,GI50,[2],6 µM
same,GI50,[3],7 µM
same,HDAC Inhibition % (1 μM),[4],44.7%
same,HDAC Inhibition % (10 μM),[4],58.4%
"Nc1ccccc1NC(=O)c1ccc(C=C(C(=O)NC2CC2)c2ccc(C(F)(F)F)cc2)cc1 [Example 106, N-(2-Aminophenyl)-4-(3-(cyclopropylamino)-2-(4-trifluoromethylphenyl)-3-oxoprop-1-en-1-yl)benzamide]",GI50,[1],20 µM
same,GI50,[2],4 µM
same,GI50,[3],15 µM
same,HDAC Inhibition % (1 μM),[4],35.8%
same,HDAC Inhibition % (10 μM),[4],42.9%
"COc1cccc(/C(=C\c2ccc(C(=O)Nc3ccccc3N)cc2)C(=O)NC2CC2)c1 [Example 108, N-(2-Aminophenyl)-4-(3-(cyclopropylamino)-2-(3-methoxyphenyl)-3-oxoprop-1-en-1-yl)benzamide]",GI50,[1],80 µM
same,GI50,[2],> 100 µM
same,GI50,[3],82 µM
same,HDAC Inhibition % (1 μM),[4],39.1%
same,HDAC Inhibition % (10 μM),[4],61.7%
"Nc1ccccc1NC(=O)c1ccc(/C=C(/C(=O)NC2CC2)c2ccccc2F)cc1 [Example 109, N-(2-Aminophenyl)-4-(3-(cyclopropylamino)-2-(2-fluorophenyl)-3-oxoprop-1-en-1-yl)benzamide]",GI50,[1],6.5 µM
same,GI50,[2],4.1 µM
same,GI50,[3],21 µM
same,HDAC Inhibition % (1 μM),[4],35.8%
same,HDAC Inhibition % (10 μM),[4],66.8%
"Nc1ccccc1NC(=O)c1ccc(/C=C(/C(=O)NC2CC2)c2cccs2)cc1 [Example 113, N-(2-Aminophenyl)-4-(3-(cyclopropylamino)-2-(thiophen-2-yl)-3-oxoprop-1-en-1-yl)benzamide]",GI50,[1],25 µM
same,GI50,[2],11 µM
same,GI50,[3],20 µM
same,HDAC Inhibition % (1 μM),[4],34.6%
same,HDAC Inhibition % (10 μM),[4],51.8%
"Nc1ccccc1NC(=O)c1ccc(/C=C(/C(=O)NC2CC2)c2ccc(F)cc2Cl)cc1 [Example 117, N-(2-Aminophenyl)-4-(3-(cyclopropylamino)-2-(2-chloro-4-fluorophenyl)-3-oxoprop-1-en-1-yl)benzamide]",GI50,[1],10 µM
same,GI50,[2],68 µM
same,GI50,[3],3.8 µM
same,HDAC Inhibition % (1 μM),[4],36.2%
same,HDAC Inhibition % (10 μM),[4],66.6%
"COc1ccc(/C(=C\c2ccc(C(=O)Nc3ccccc3N)cc2)C(=O)Nc2ccccc2)cc1OC [Example 118, N-(2-Aminophenyl)-4-(3-(phenylamino)-2-(3,4-dimethoxyphenyl)-3-oxoprop-1-en-1-yl)benzamide]",GI50,[1],90 µM
same,GI50,[2],10 µM
same,GI50,[3],4.2 µM
same,HDAC Inhibition % (1 μM),[4],21.0%
same,HDAC Inhibition % (10 μM),[4],46.0%
"COc1ccc(/C(=C\c2ccc(C(=O)Nc3ccccc3N)cc2)C(=O)NC2CC2)cc1OC [Example 119, N-(2-Aminophenyl)-4-(3-(cyclopropylamino)-2-(3,4-dimethoxyphenyl)-3-oxoprop-1-en-1-yl)benzamide]",GI50,[1],28 µM
same,GI50,[2],32 µM
same,GI50,[3],18 µM
same,HDAC Inhibition % (1 μM),[4],28.9%
same,HDAC Inhibition % (10 μM),[4],33.9%
"COc1ccc(/C(=C\c2ccc(C(=O)Nc3ccccc3N)cc2)C(=O)NC2CC2)c(OC)c1 [Example 120, N-(2-Aminophenyl)-4-(3-(cyclopropylamino)-2-(2,4-dimethoxyphenyl)-3-oxoprop-1-en-1-yl)benzamide]",GI50,[1],21 µM
same,GI50,[2],10.5 µM
same,GI50,[3],10 µM
same,HDAC Inhibition % (1 μM),[4],36.9%
same,HDAC Inhibition % (10 μM),[4],59.3%
